Tests used:
Format in all cases: in vivo
Thrips tabaci = Thrips tabaci (onion thrips) leaf disc spray test; details: foliar, 168 h, 200 ppm sprayed on sunflower leaf discs, population of mixed ages, mortality after 7 days
Protocol: Thrips Tabaci (Onion Thrips): Sunflower leaf discs were placed on agar in a 24-well microtiter plate and sprayed with test solutions at an application rate of 200 ppm. After drying, the leaf discs were infested with an […] population of mixed ages. After an incubation period of 7 days, samples were checked for mortality.

Spodoptera littoralis = Spodoptera littoralis (Egyptian cotton leafworm) leaf disc spray test; details: foliar, 72 h, 200 ppm sprayed on cotton leaf discs, 5 L1 larvae, mortality, feeding behavior, growth regulation 3 days after treatment
Excerpt: Spodoptera Littoralis (Egyptian Cotton Leafworm): Cotton leaf discs were placed on agar in a 24-well microtiter plate and sprayed with test solutions at an application rate of 200 ppm. After drying, the leaf discs were infested with 5 L1 larvae. The samples were checked for mortality, feeding behavior, and growth regulation 3 days after treatment (DAT).

Diabrotica balteata = Diabrotica balteata (corn root worm) artificial diet test; details: 120 h, 200 ppm (concentration in well 18 ppm), L2 larvae, larval mortality and growth regulation after 5 days
Protocol: (§1) Diabrotica Balteata (Corn Root Worm): A 24-well microtiter plate (MTP) with artificial diet was treated with test solutions at an application rate of 200 ppm (concentration in well 18 ppm) by pipetting. After drying, the MTP's were infested with L2 larvae (6-10 per well). After an incubation period of 5 days, samples were checked for larval mortality and growth regulation.

Tetranychus urticae = Tetranychus urticae (two-spotted spider mite) leaf disc spray test; details: foliar, 192 h, 200 ppm sprayed on bean leaf discs, mite populations of mixed ages, egg, larval and adult mortality 8 days later
Excerpt: Tetranychus Urticae (Two-Spotted Spider Mite): Bean leaf discs on agar in 24-well microtiter plates were sprayed with test solutions at an application rate of 200 ppm. After drying, the leaf discs are infested with mite populations of mixed ages. 8 days later, discs are checked for egg mortality, larval mortality, and adult mortality.

Plutella xylostella = Plutella xylostella (diamond back moth) artificial diet test; details: 144 h, 200 ppm (concentration in well 18 ppm), L2 larvae, larval mortality and growth regulation after 6 days
Protocol: as §1, with “Plutella Xylostella (Diamond Back Moth):” for “Diabrotica Balteata (Corn Root Worm): A”, “(7-12” for “(6-10”, “6” for “5”

Heliothis virescens = Heliothis virescens (tobacco budworm) egg/artificial diet test; details: 96 h, 200 ppm (concentration in well 18 ppm), eggs 0-24 h old on artificial diet, egg mortality, larval mortality, growth regulation after 4 days
Protocol: Heliothis Virescens (Tobacco Budworm): Eggs (0-24 h old) were placed in 24-well microtiter plate on artificial diet and treated with test solutions at an application rate of 200 ppm (concentration in well 18 ppm) by pipetting. After an incubation period of 4 days, samples were checked for egg mortality, larval mortality, and growth regulation.

Measured: pest or weed control at 200 ppm

CCc1cc(C(F)(C(F)(F)F)C(F)(F)C(F)(F)F)cc(C)c1NC(=O)c1ccc(-n2cncn2)c(NC(=O)c2ccc(F)cc2)c1 (stereo not drawn) [D6, 3-(4-Fluorobenzoylamino)-N-[2-ethyl-4-(1,2,2,3,3,3-hexafluoro-1-trifluoromethyl-propyl)-6-methylphenyl]-4-(1,2,4-triazol-1-yl)benzamide]
≥ 80%: all assays above

O=C(Nc1c(Br)cc(C(F)(C(F)(F)F)C(F)(F)C(F)(F)F)cc1Br)c1ccc(-n2cncn2)c(NC(=O)c2ccc(F)cc2Cl)c1 (stereo not drawn) [D9, 3-(2-Chloro-4-fluorobenzoylamino)-N-[2,6-dibromo-4-(1,2,2,3,3,3-hexafluoro-1-trifluoromethylpropyl)phenyl]-4-(1,2,4-triazol-1-yl)benzamide]
≥ 80%: all assays above

Cc1c(C(=O)Nc2cc(C(=O)Nc3c(Br)cc(C(F)(C(F)(F)F)C(F)(F)C(F)(F)F)cc3Br)ccc2-n2cncn2)cccc1[N+](=O)[O-] (stereo not drawn) [D10, 3-(2-Methyl-3-nitrobenzoylamino)-N-[2,6-dibromo-4-(1,2,2,3,3,3-hexafluoro-1-trifluoromethylpropyl)phenyl]-4-(1,2,4-triazol-1-yl)benzamide]
≥ 80%: all assays above

— patent US8455399B2, “N-(4-perfluoroalkyl-phenyl)-4-triazolyl-benzamides as insecticides” (Syngenta Crop Protection LLC, priority 2009, dated 2013)
